# Source: ChEMBL document CHEMBL1137946, “Synthesis and biological evaluation of (-)-laulimalide analogues” (Bioorg Med Chem Lett, 2004)
# pIC50: −log10 of the molar value.
# How the values were obtained:
# MDA-MB-435 = test: In vitro growth inhibitory activity against MDA-MB-435 human breast cancer cell line; assay type: functional, cell-based
# HT-29 = test: In vitro growth inhibitory activity against HT-29 human colon cancer cell line; assay type: functional, cell-based
SMILES,pIC50 (MDA-MB-435),pIC50 (HT-29)
C=C1C[C@H](C)C[C@@H]2CC=C[C@@H](C/C=C/C(=O)O[C@H]([C@@H](O)/C=C/[C@@H]3CC(C)=CCO3)C/C=C/[C@@H](O)C1)O2,5.56,5.07
C=C1C[C@H](C)C[C@@H]2CC=C[C@@H](CCCC(=O)O[C@H]([C@H](/C=C/[C@@H]3CC(C)=CCO3)OC)C[C@@H]3O[C@H]3[C@@H](O)C1)O2,< 6.00,< 6.00
C=C1C[C@H](C)C[C@@H]2CC=C[C@@H](C/C=C\C(=O)O[C@H]([C@@H](O)/C=C/[C@@H]3CC(C)=CCO3)C[C@@H]3O[C@H]3[C@@H](OC(C)=O)C1)O2,7.64,–
C=C1C[C@H](C)C[C@@H]2CC=C[C@@H](C/C=C\C(=O)O[C@H]([C@H](/C=C/[C@@H]3CC(C)=CCO3)OC(C)=O)C[C@@H]3O[C@H]3[C@@H](O)C1)O2,7.04,–
C=C1C[C@H](C)C[C@@H]2CC=C[C@@H](C/C=C\C(=O)O[C@H]([C@@H](O)/C=C/[C@@H]3CC(C)=CCO3)C/C=C/[C@@H](O)C1)O2,6.54,6.02
C=C1C[C@H](C)C[C@@H]2CC=C[C@@H](C/C=C\C(=O)O[C@H]([C@@H](O)/C=C/[C@@H]3CC(C)=CCO3)C[C@@H]3O[C@H]3[C@@H](OC)C1)O2,< 6.00,–
C=C1C[C@H](C)C[C@@H]2CC=C[C@@H](C/C=C\C(=O)O[C@H]([C@@H](O)/C=C/[C@@H]3CC(C)=CCO3)C[C@H]3O[C@@H]3[C@H](OC(=O)c3ccc([N+](=O)[O-])cc3)C1)O2,< 6.00,–
C=C1C[C@H](C)C[C@@H]2CC=C[C@@H](C/C=C\C(=O)O[C@H]([C@H](/C=C/[C@@H]3CC(C)=CCO3)O[Si](C)(C)C(C)(C)C)C[C@@H]3O[C@H]3[C@@H](O)C1)O2,< 6.00,–
C=C1C[C@H](C)C[C@@H]2CC=C[C@@H](C/C=C\C(=O)O[C@H]([C@@H](O)/C=C/[C@@H]3CC(C)=CCO3)C/C=C/[C@H](O)C1)O2,6.10,5.57
C=C1C[C@H](C)C[C@@H]2CC=C[C@@H](C/C=C\C(=O)O[C@H]([C@H](/C=C/[C@@H]3CC(C)=CCO3)OC(C)=O)C[C@@H]3O[C@H]3[C@@H](OC(C)=O)C1)O2,6.54,–
C=C1CC(=N\OC)/C=C/C[C@@H]([C@@H](O)/C=C/[C@@H]2CC(C)=CCO2)OC(=O)/C=C\C[C@@H]2C=CC[C@@H](C[C@@H](C)C1)O2,< 6.00,–
C=C1C[C@H](C)C[C@@H]2CC=C[C@@H](C/C=C\C(=O)O[C@H]([C@@H](O)/C=C/[C@@H]3CC(C)=CCO3)C[C@@H]3O[C@H]3[C@H](OC(=O)OC)C1)O2,6.37,–
C=C1C[C@H](C)C[C@@H]2CC=C[C@@H](CC#CC(=O)O[C@H]([C@H](/C=C/[C@@H]3CC(C)=CCO3)OC)C[C@@H]3O[C@H]3[C@@H](O)C1)O2,< 6.00,< 6.00
C=C1C[C@H](C)C[C@@H]2CC=C[C@@H](C/C=C\C(=O)O[C@H]([C@@H](O)/C=C/[C@@H]3CC(C)=CCO3)C[C@@H]3O[C@H]3[C@H](OC(=O)c3ccc([N+](=O)[O-])cc3)C1)O2,7.43,–
C=C1C[C@H](C)C[C@@H]2CC=C[C@@H](C/C=C\C(=O)O[C@H]([C@@H](O)/C=C/[C@@H]3CC(C)=CCO3)C[C@@H]3O[C@H]3[C@H](OC(=O)N(C)C)C1)O2,6.22,–
C=C1C[C@H](C)C[C@@H]2CC=C[C@@H](C/C=C\C(=O)O[C@H]([C@@H](O)/C=C/[C@@H]3CC(C)=CCO3)C[C@H]3O[C@@H]3[C@H](O)C1)O2,6.75,–
C=C1CC(=O)/C=C/C[C@@H]([C@@H](O)/C=C/[C@@H]2CC(C)=CCO2)OC(=O)/C=C\C[C@@H]2C=CC[C@@H](C[C@@H](C)C1)O2,< 6.00,–
C=C1C[C@H](C)C[C@@H]2CC=C[C@@H](C/C=C\C(=O)O[C@H]([C@H](/C=C/[C@@H]3CC(C)=CCO3)OC)C[C@@H]3O[C@H]3[C@@H](O)C1)O2,6.62,6.23
C=C1C[C@H](C)C[C@@H]2CC=C[C@@H](C/C=C/C(=O)O[C@H]([C@@H](O)/C=C/[C@@H]3CC(C)=CCO3)C/C=C/[C@H](O)C1)O2,5.37,5.02
C=C1C[C@H](C)C[C@@H]2CC=C[C@@H](C/C=C\C(=O)O[C@H]([C@@H](O)/C=C/[C@@H]3CC(C)=CCO3)C[C@@H]3O[C@H]3[C@@H](O)C1)O2 [FIJIANOLIDE B],8.64,8.16
